Source: the supplement of paper PMC11208160

assay: recombinant UMI read abundance after kanamycin selection (control-corrected) (log10(CPM+1)); higher = more efficient recombination; extreme values may be limits of the assay; sequences stand for … in AGTGCAGAGAAAATCGGCCAGTTTTCTCTGCCTGCAGTCCGCATGCCGTGGGACCCCTTGGGTTCTAACCTGTTGCCTAGATTTATGCAGCGGACTGCCTTTCTCCCAAAGTGATAAACCGG…AGGTTGGTTTCACT; site = the 11-nt donor
How it was run: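 Counts of recombinant UMIs were reported as log10(CPM+1). Before that, they were converted to CPM, averaged over replicates and scaled using control-derived factors. They came from PCR across the donor–target junction after Escherichia coli carrying the pair library and target plasmid was plated on IPTG (0.07 mM) plus kanamycin, or unselected, in two replicates each.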
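Also: IS621 bridge recombinase in Escherichia coli cells against a fixed T5 target plasmid.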

Sequence | recombinant UMI read abundance (log10)
GATTATGCATGGACCGGTTTTCCCGGTAATCCGTATTTGGA (site CATTATGCTTC) | 1.13
GATTATGCATGGACCGGTTTTCCCGGTAATCCGTATTTGGA (site GATTATGCTTC) | 0.861
GATTATGCATGGACCGGTTTTCCCGGTAATCCGTATTTGGA (site TATTATGCTTC) | 0.882
GATTCATCATGGACCGGTTTTCCCGGTAATCCGTATTTGAG (site GATTCATCTCT) | 1.31
GATTGGCCATGGACCGGTTTTCCCGGTAATCCGTATTTGCG (site GATTGGCCTCG) | 0.115
GATTGTACATGGACCGGTTTTCCCGGTAATCCGTATTTGAC (site GATTGAACTGT) | 0
GATTGTACATGGACCGGTTTTCCCGGTAATCCGTATTTGAC (site GATTGCACTGT) | 0
GATTGTACATGGACCGGTTTTCCCGGTAATCCGTATTTGAC (site GATTGGACTGT) | 0
GATTGTACATGGACCGGTTTTCCCGGTAATCCGTATTTGAC (site GATTGTACTGT) | 0.604
GATTGTCCATGGACCGGTTTTCCCGGTAATCCGTATTTGCT (site GATTATCCTAG) | 0
GATTGTCCATGGACCGGTTTTCCCGGTAATCCGTATTTGCT (site GATTCTCCTAG) | 0
GATTGTCCATGGACCGGTTTTCCCGGTAATCCGTATTTGCT (site GATTGTCCTAG) | 0
GATTGTCCATGGACCGGTTTTCCCGGTAATCCGTATTTGCT (site GATTTTCCTAG) | 0
GATTTCGCATGGACCGGTTTTCCCGGTAATCCGTATTTGTC (site GATTTCGCTGA) | 1.51
GATTTGACATGGACCGGTTTTCCCGGTAATCCGTATTTGAC (site GATTAGACTGT) | 0
GATTTGACATGGACCGGTTTTCCCGGTAATCCGTATTTGAC (site GATTCGACTGT) | 0
GATTTGACATGGACCGGTTTTCCCGGTAATCCGTATTTGAC (site GATTGGACTGT) | 0
GATTTGACATGGACCGGTTTTCCCGGTAATCCGTATTTGAC (site GATTTGACTGT) | 0.525
GCAAAAACATGGACCGGTTTTCCCGGTAATCCGTATTTGCT (site GCAAAAACTAG) | 0.226
GCAAAAACATGGACCGGTTTTCCCGGTAATCCGTATTTGCT (site GCCAAAACTAG) | 0
GCAAAAACATGGACCGGTTTTCCCGGTAATCCGTATTTGCT (site GCGAAAACTAG) | 0
GCAAAAACATGGACCGGTTTTCCCGGTAATCCGTATTTGCT (site GCTAAAACTAG) | 0
GCAAACCCATGGACCGGTTTTCCCGGTAATCCGTATTTGAT (site GCAAACCCTAT) | 1.75
GCAAACGCATGGACCGGTTTTCCCGGTAATCCGTATTTGGT (site GCAAACGCTAC) | 1.71
GCAAATTCATGGACCGGTTTTCCCGGTAATCCGTATTTGTA (site GCAAATTCTTA) | 1.32

Sequence | recombinant UMI read abundance (log10)
GCAACTGCATGGACCGGTTTTCCCGGTAATCCGTATTTGCC (site GCAACTGCTGG) | 0
GCAACTGCATGGACCGGTTTTCCCGGTAATCCGTATTTGCC (site GCCACTGCTGG) | 0
GCAACTGCATGGACCGGTTTTCCCGGTAATCCGTATTTGCC (site GCGACTGCTGG) | 0
GCAACTGCATGGACCGGTTTTCCCGGTAATCCGTATTTGCC (site GCTACTGCTGG) | 0
GCAATACCATGGACCGGTTTTCCCGGTAATCCGTATTTGTG (site GCAATACCTCA) | 0.00804
GCAATTACATGGACCGGTTTTCCCGGTAATCCGTATTTGTC (site GCAATTACTGA) | 0.939
GCACACCCATGGACCGGTTTTCCCGGTAATCCGTATTTGTT (site GCACACCCTAA) | 0.67
GCACATCCATGGACCGGTTTTCCCGGTAATCCGTATTTGAC (site ACACATCCTGT) | 2.23
GCACATCCATGGACCGGTTTTCCCGGTAATCCGTATTTGAC (site CCACATCCTGT) | 0
GCACATCCATGGACCGGTTTTCCCGGTAATCCGTATTTGAC (site GCACATCCTGT) | 0
GCACATCCATGGACCGGTTTTCCCGGTAATCCGTATTTGAC (site TCACATCCTGT) | 0.745
GCACTTTCATGGACCGGTTTTCCCGGTAATCCGTATTTGGG (site GCACTTTCTCC) | 2.31
GCAGACTCATGGACCGGTTTTCCCGGTAATCCGTATTTGTT (site GCAGACTCTAA) | 3.03
GCAGATCCATGGACCGGTTTTCCCGGTAATCCGTATTTGCT (site GCAGATCCTAG) | 0
GCAGATTCATGGACCGGTTTTCCCGGTAATCCGTATTTGTT (site GAAGATTCTAA) | 0
GCAGATTCATGGACCGGTTTTCCCGGTAATCCGTATTTGTT (site GCAGATTCTAA) | 2.97
GCAGATTCATGGACCGGTTTTCCCGGTAATCCGTATTTGTT (site GGAGATTCTAA) | 0
GCAGATTCATGGACCGGTTTTCCCGGTAATCCGTATTTGTT (site GTAGATTCTAA) | 0.308
GCAGGCCCATGGACCGGTTTTCCCGGTAATCCGTATTTGCT (site GCAGGCCCTAG) | 0.921
GCAGGCGCATGGACCGGTTTTCCCGGTAATCCGTATTTGGT (site GCAGGCGCTAC) | 0.864
GCAGGTGCATGGACCGGTTTTCCCGGTAATCCGTATTTGAT (site ACAGGTGCTAT) | 2.52
GCAGGTGCATGGACCGGTTTTCCCGGTAATCCGTATTTGAT (site CCAGGTGCTAT) | 1.91
GCAGGTGCATGGACCGGTTTTCCCGGTAATCCGTATTTGAT (site GCAGGTGCTAT) | 2.1
GCAGGTGCATGGACCGGTTTTCCCGGTAATCCGTATTTGAT (site TCAGGTGCTAT) | 1.52
GCAGTATCATGGACCGGTTTTCCCGGTAATCCGTATTTGCA (site ACAGTATCTTG) | 2.95

Sequence | recombinant UMI read abundance (log10)
GCAGTATCATGGACCGGTTTTCCCGGTAATCCGTATTTGCA (site CCAGTATCTTG) | 2.09
GCAGTATCATGGACCGGTTTTCCCGGTAATCCGTATTTGCA (site GCAGTATCTTG) | 2.68
GCAGTATCATGGACCGGTTTTCCCGGTAATCCGTATTTGCA (site TCAGTATCTTG) | 1.87
GCAGTATCATGGACCGGTTTTCCCGGTAATCCGTATTTGGA (site ACAGTATCTTG) | 0.785
GCAGTATCATGGACCGGTTTTCCCGGTAATCCGTATTTGGA (site GCAGTATCTTC) | 2.1
GCATCGACATGGACCGGTTTTCCCGGTAATCCGTATTTGCA (site GCATCGACTTG) | 2.56
GCATCTACATGGACCGGTTTTCCCGGTAATCCGTATTTGTG (site ACATCTACTCA) | 0.6
GCATCTACATGGACCGGTTTTCCCGGTAATCCGTATTTGTG (site CCATCTACTCA) | 0.104
GCATCTACATGGACCGGTTTTCCCGGTAATCCGTATTTGTG (site GCATCTACTCA) | 0.968
GCATCTACATGGACCGGTTTTCCCGGTAATCCGTATTTGTG (site TCATCTACTCA) | 1.87
GCATGCACATGGACCGGTTTTCCCGGTAATCCGTATTTGTA (site GAATGCACTTA) | 0.245
GCATGCACATGGACCGGTTTTCCCGGTAATCCGTATTTGTA (site GCATGCACTTA) | 2.41
GCATGCACATGGACCGGTTTTCCCGGTAATCCGTATTTGTA (site GGATGCACTTA) | 0.364
GCATGCACATGGACCGGTTTTCCCGGTAATCCGTATTTGTA (site GTATGCACTTA) | 1.01
GCATGCGCATGGACCGGTTTTCCCGGTAATCCGTATTTGTT (site GCATGCGCTAA) | 1.82
GCATTGTCATGGACCGGTTTTCCCGGTAATCCGTATTTGCA (site GCATTGTCTTG) | 2.76
GCCAAAACATGGACCGGTTTTCCCGGTAATCCGTATTTGCT (site GCAAAAACTAG) | 1.08
GCCAAAACATGGACCGGTTTTCCCGGTAATCCGTATTTGCT (site GCCAAAACTAG) | 1
GCCAAAACATGGACCGGTTTTCCCGGTAATCCGTATTTGCT (site GCGAAAACTAG) | 0
GCCAAAACATGGACCGGTTTTCCCGGTAATCCGTATTTGCT (site GCTAAAACTAG) | 0
GCCAAACCATGGACCGGTTTTCCCGGTAATCCGTATTTGGT (site GACAAACCTAC) | 0
GCCAAACCATGGACCGGTTTTCCCGGTAATCCGTATTTGGT (site GCCAAACCTAC) | 0
GCCAAACCATGGACCGGTTTTCCCGGTAATCCGTATTTGGT (site GGCAAACCTAC) | 0.0048
GCCAAACCATGGACCGGTTTTCCCGGTAATCCGTATTTGGT (site GTCAAACCTAC) | 0
GCCAACACATGGACCGGTTTTCCCGGTAATCCGTATTTGAT (site GCCAACACTAT) | 1.9
